Measurements taken from patent US12570603B2, “FABP4/5 inhibitors, methods of use and methods of making” (Novius Therapeutics, LLC, priority 2021, dated 2026).

What was measured:
3T3-L1 adipocytes [1] = test: Lipid uptake during adipocyte maturation, Nile Red; assay type: cell-based, mouse; details: B4 from day 6, stained day 12
Protocol: (§1) 3) 3T3-L1: Mouse 3T3-L1 cells were differentiated in culture according to ATCC protocol to become mature adipocytes. At day 6 of the differentiation, compound treatment started. Cells were stained by Nile Red on day and color intensity in each cell was measured relative to Dapi staining. Lipolysis was measured by measuring glycerol levels using lipolysis kit (Cayman, USA) according to the manufacturer manual.
(§2) 1) 3T3-L1: Mouse 3T3-L1 cells were differentiated in culture according to ATCC protocol to become mature adipocytes. At day 6 of the differentiation, compound treatment started. Cells were stained by Nile Red on day and color intensity in each cell was measured relative to Dapi staining. Lipolysis was measured by measuring glycerol levels using lipolysis kit (Cayman, USA) according to the manufacturer manual.

LX-2 cells = test: Hepatic stellate cells activation assay (αSMA after TGF-β); assay type: cell-based, human; details: B4 0.1 to 5 μM versus untreated cells
Protocol: LX-2 cells were treated with compound for 6 h. then stimulated with TGF-β ([…]) for additional 24 h. Cells were fixed with 4% paraformaldehyde and immununostained with the fibrosis marker αSMA. Nuclei were stained with Dapi. Images and quantification of positive cells was done using Cytation5 (Agilent).

3T3-L1 adipocytes [2] = test: Lipolysis (glycerol release) in mature adipocytes; assay type: cell-based, mouse
Protocol: as §1, §2

TNBC lines and MCF7 = test: Proliferation assay in multiple TNBC lines and MCF7, MB-231 shF5 as control; assay type: cell-based
Protocol: (§3) 2000 cells were plated in each well of 96-well plate. The next day cells were treated with compounds and incubated in Incucyte for 4 days. Images taken every 4 hours for the duration of the time were analyzed to calculate percentage of confluency in response to the treatments. Growth inhibition was calculated as 1−(percentage of viable cells out of untreated cells).

[3] = system: PPARδ targets PDPK1 and CD47 in TNBC cells MB-157; test: Real-time PCR of PPARδ targets; assay type: cell-based, human; details: MB-157, 1 μM, 6 hours
Protocol: Cells were treated with a compound for 6 h. then lysed and RNA was extracted using Trizol, according to the manufacturer's instructions. cDNA was generated using GeneAmp RNA PCR (Applied Biosystems). qPCR was carried out using TaqMan chemistry and Assays-on-Demand probes (Applied Biosystems). 18s (4352930) rRNA was used for normalization. Relative expression was calculated as 2^−ΔΔCT.

[4] = system: FABP5 together with PPARδ; test: Transcriptional activation assay in cells overexpressing FABP5, with PPARδ activator GW0742; assay type: cell-based; details: together with GW0742, FIG. 8
Protocol: COS-7 were cultured in 6-well plates and co-transfected with either a luciferase reporter driven by 3 copies of a PPRE and expression vector for either PPARδ, PPARα or PPARγ together with a vector harboring cDNA for β-galactosidase, serving as a transfection control. To test whether FABP4 or FABP5 mediate activation of their cognate receptors PPARγ and PPARδ, respectively, cells were also co-transfected with a plasmid harboring sequence of either FABP4 or FABP5. 18 h post-transfection, cells were placed in a serum-free medium and treated with agonist/compound. 18 h. later, cells were lysed, luciferase activity was assayed (Promega, WI, USA) and corrected for transfection efficiency by the activity of β-galactosidase.

[5] = Level of B4 in serum and tissues after IP injection or oral gavage; assay type: in vivo, mice
Protocol: Male CD-1 mice (n=3) were treated with B4 either by IP injections (5 mg/kg) or by oral gavage (10 mg/kg). At times, 3, 6, and 24 hours after treatment, mice were euthanized and serum, liver, adipose, muscle and brain tissues were collected and analyzed to determine level of B4. Untreated mice were used as controls.

HepG2 cells = test: Lipid uptake assay, oleic acid, Nile Red (steatosis model); assay type: cell-based, human; details: OA 1 mM
Protocol: 2) Hepg2 cells: 5000 cells were plated in 96-well plate. The next day cells were treated with tested compounds for 4 hours and then treated with 1 mM oleic acid for additional 24 hours. Cells were then stained with Nile Red and Dapi and lipid content was quantified using Cytation5 (Agilent).
2) Hepg2 cells: 5000 cells were plated in 96-well plate. The next day cells were treated with tested compounds for 4 hours and then treated with 1 mM oleic acid for additional 24 hours. Cells were then stained with Nile Red and Dapi and lipid content was quantified.

[6] = system: MB-231 shC and shF5 cells; test: Proliferation assay, MB-231 lines expressing control shRNA (shC) or FABP5 shRNA (shF5); assay type: cell-based; details: MB-231 shC vs shF5, different concentrations
Protocol: as §3

[7] = IP Injection (0.35 μmole/mouse), 3 hr
[8] = IP Injection (0.35 μmole/mouse), 6 hr
[9] = IP Injection (0.35 μmole/mouse), 24 hr
[10] = Oral Gavage (0.71 μmole/mouse), 3 hr
[11] = Oral Gavage (0.71 μmole/mouse), 6 hr
[12] = Oral Gavage (0.71 μmole/mouse), 24 hr

**Q.** Which “lipid droplets in adipocytes (Nile Red)” value (3T3-L1 adipocytes [1]) does the source give for `CC(C)Oc1cc(NC(=O)CSCC(=O)O)c(Cl)cc1Cl` [Compound B4, 2-((2-((2,4-dichloro-5-isopropoxyphenyl)amino)-2-oxoethyl)thio)acetic acid] here?
**A.** fewer LD within the cells

**Q.** And the “levels of α-SMA following activation by TGF-β” value (LX-2 cells)?
**A.** significantly lower than in untreated cells

**Q.** And the “basal lipolysis (glycerol release)” value (3T3-L1 adipocytes [2]; basal)?
**A.** inhibited basal lipolysis

**Q.** What about the “isoproterenol-stimulated lipolysis (glycerol release)” value (3T3-L1 adipocytes [2]; isoproterenol-stimulated, relative to basal) of the same compound?
**A.** more potent

**Q.** What about the “growth inhibition of TNBC lines by FABP5 level” value (TNBC lines and MCF7) of the same compound?
**A.** inhibited growth of only TNBC lines expressing high FABP5 levels

**Q.** And the “levels of endogenous PPARδ targets PDPK1 and CD47” value [3]?
**A.** significantly lower

**Q.** And the “inhibition of PPARδ activity in cells overexpressing FABP5” value [4]?
**A.** inhibit activity of the nuclear receptors only in cells that express the binding proteins

**Q.** And the “Drug Concentration, Adipose” value [5, 7]?
**A.** 7.98 ± 3.82 µmol/kg

**Q.** What about the Drug Concentration, Blood [5, 7] of the same compound?
**A.** 1910 ± 140 nM

**Q.** And the “Drug Concentration, Brain” value [5, 7]?
**A.** 0.15 ± 0.04 µmol/kg

**Q.** And the “Drug Concentration, Liver” value [5, 7]?
**A.** 7.05 ± 2.0 µmol/kg

**Q.** What about the “Drug Concentration, Muscle” value [5, 7] of the same compound?
**A.** 1.7 ± 0.8 µmol/kg

**Q.** And the “Drug Concentration, Adipose” value [5, 8]?
**A.** 2.45 ± 1.12 µmol/kg

**Q.** And the Drug Concentration, Blood [5, 8]?
**A.** 1370 ± 120 nM

**Q.** What about the “Drug Concentration, Brain” value [5, 8] of the same compound?
**A.** 0.09 ± 0.01 µmol/kg

**Q.** What about the “Drug Concentration, Liver” value [5, 8] of the same compound?
**A.** 3.45 ± 1.49 µmol/kg

**Q.** What about the “Drug Concentration, Muscle” value [5, 8] of the same compound?
**A.** 1.07 ± 0.8 µmol/kg

**Q.** What about the “Drug Concentration, Adipose” value [5, 9] of the same compound?
**A.** 0.013 ± 0.006 µmol/kg

**Q.** What about the Drug Concentration, Blood [5, 9] of the same compound?
**A.** 5.4 ± 2 nM

**Q.** What about the “Drug Concentration, Brain” value [5, 9] of the same compound?
**A.** 0.0003 ± 0.0002 µmol/kg

**Q.** What about the “Drug Concentration, Liver” value [5, 9] of the same compound?
**A.** 0.035 ± 0.016 µmol/kg

**Q.** What about the “Drug Concentration, Muscle” value [5, 9] of the same compound?
**A.** 0.008 ± 0.002 µmol/kg

**Q.** And the “Drug Concentration, Adipose” value [5, 10]?
**A.** 1.41 ± 0.002 µmol/kg

**Q.** What about the Drug Concentration, Blood [5, 10] of the same compound?
**A.** 1240 ± 250 nM

**Q.** What about the “Drug Concentration, Brain” value [5, 10] of the same compound?
**A.** 0.1 ± 0.04 µmol/kg

**Q.** And the “Drug Concentration, Liver” value [5, 10]?
**A.** 8.93 ± 2.2 µmol/kg

**Q.** And the “Drug Concentration, Muscle” value [5, 10]?
**A.** 1.33 ± 0.74 µmol/kg

**Q.** And the “Drug Concentration, Adipose” value [5, 11]?
**A.** 1.38 ± 0.05 µmol/kg

**Q.** What about the Drug Concentration, Blood [5, 11] of the same compound?
**A.** 980 ± 500 nM

**Q.** And the “Drug Concentration, Brain” value [5, 11]?
**A.** 0.09 ± 0.04 µmol/kg

**Q.** What about the “Drug Concentration, Liver” value [5, 11] of the same compound?
**A.** 6.47 ± 2.3 µmol/kg

**Q.** What about the “Drug Concentration, Muscle” value [5, 11] of the same compound?
**A.** 0.95 ± 0.45 µmol/kg

**Q.** What about the “Drug Concentration, Adipose” value [5, 12] of the same compound?
**A.** 0.11 ± 0.05 µmol/kg

**Q.** What about the Drug Concentration, Blood [5, 12] of the same compound?
**A.** 7.2 ± 2 nM

**Q.** And the “Drug Concentration, Brain” value [5, 12]?
**A.** 0.0009 ± 0.0007 µmol/kg

**Q.** And the “Drug Concentration, Liver” value [5, 12]?
**A.** 0.035 ± 0.013 µmol/kg

**Q.** What about the “Drug Concentration, Muscle” value [5, 12] of the same compound?
**A.** 0.014 ± 0.018 µmol/kg

**Q.** What about the “clearance from serum and tissues” value ([5]; male CD-1 mice, IP 5 mg/kg or oral gavage 10 mg/kg, after 24 hours) of the same compound?
**A.** cleared from the serum and tissues

**Q.** What about the “uptake of lipids into hepatocytes (Nile Red)” value (HepG2 cells; B4 0.1 to 5 μM) of the same compound?
**A.** prevented uptake of lipids into hepatocytes

**Q.** What about the “size of the lipid droplets” value (HepG2 cells; B4 treated cells) of the same compound?
**A.** significantly smaller droplets

**Q.** What about the “TNBC cell growth, shC versus shF5” value [6] of the same compound?
**A.** suppressed TNBC cell growth only in the cells highly expressing FABP5
